# According to publication PMC11760385, “Differential GTP-dependent in-vitro polymerization of recombinant Physcomitrella FtsZ proteins” (Scientific Reports, 2025):
# Assays:
# FtsZ2-1 = biological target: T1, FtsZ2-1 (Physcomitrium patens, UniProt O49922); test: malachite green phosphate release GTPase assay; assay type: biochemical; conditions: 1 mM GTP, 7.5 µM protein, 37.5 mM glycine pH 10, 100 mM KCl, 5 mM MgCl2, 5% glycerol, 25 °C, 10 min
# T1 construct: gene ftsZ 2-1; lacks N-terminal transit peptide (42 aa, TargetP-2.0); N-terminal His6-SUMO tag cleaved with Ulp1; codon-optimised, expressed in E. coli NiCo; start 43 follows from the removed 42 aa
# T1 sequence (O49922 entry or part of it): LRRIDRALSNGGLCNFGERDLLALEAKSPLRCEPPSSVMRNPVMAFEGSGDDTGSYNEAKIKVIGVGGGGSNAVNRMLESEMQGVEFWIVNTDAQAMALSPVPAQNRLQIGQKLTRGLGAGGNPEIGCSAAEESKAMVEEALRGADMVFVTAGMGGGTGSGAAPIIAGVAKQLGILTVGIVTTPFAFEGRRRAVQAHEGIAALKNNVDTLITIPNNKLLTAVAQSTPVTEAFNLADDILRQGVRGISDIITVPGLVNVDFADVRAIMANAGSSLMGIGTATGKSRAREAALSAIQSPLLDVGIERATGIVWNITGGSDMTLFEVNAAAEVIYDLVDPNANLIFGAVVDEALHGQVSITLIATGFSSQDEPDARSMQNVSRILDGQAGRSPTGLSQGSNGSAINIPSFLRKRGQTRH
# FtsZ1-2 = biological target: T2, FtsZ1-2 (Physcomitrium patens, UniProt A9SRP3); test: malachite green phosphate release GTPase assay; assay type: biochemical; conditions: 1 mM GTP, 7.5 µM protein, 37.5 mM glycine pH 10, 100 mM KCl, 5 mM MgCl2, 5% glycerol, 25 °C, 10 min
# T2 construct: gene LOC112295762; lacks N-terminal transit peptide (86 aa, TargetP-2.0); N-terminal His6-SUMO tag cleaved with Ulp1; codon-optimised, expressed in E. coli NiCo; start 87 follows from the removed 86 aa
# T2 sequence (A9SRP3 entry or part of it): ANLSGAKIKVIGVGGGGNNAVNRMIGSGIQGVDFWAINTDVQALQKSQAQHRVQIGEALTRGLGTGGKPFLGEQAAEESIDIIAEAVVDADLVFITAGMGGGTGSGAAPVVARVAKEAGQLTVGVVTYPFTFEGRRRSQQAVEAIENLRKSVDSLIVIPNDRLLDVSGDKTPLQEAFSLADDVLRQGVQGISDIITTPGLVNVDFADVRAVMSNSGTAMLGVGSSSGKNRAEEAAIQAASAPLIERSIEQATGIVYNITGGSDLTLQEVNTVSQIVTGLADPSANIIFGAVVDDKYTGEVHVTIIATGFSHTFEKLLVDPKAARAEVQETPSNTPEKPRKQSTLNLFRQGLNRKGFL
compound,measurement,setting,value
Nc1nc2c(ncn2[C@@H]2O[C@H](COP(=O)(O)OP(=O)(O)OP(=O)(O)O)[C@@H](O)[C@H]2O)c(=O)[nH]1 [GTP],malachite green phosphate release GTPase assay,FtsZ2-1,Both FtsZ proteins exhibited low but significant GTPase activities.
same,malachite green phosphate release GTPase assay,FtsZ1-2,Both FtsZ proteins exhibited low but significant GTPase activities.
